Entries after “also recorded” stand apart in the source; their conditions may differ. Read-outs that look alike come from different tables or passages of the source.
Tests used:
[1] = cited from earlier work; for solubility in polar solvents: ethanol and methanol
[2] = tested on: isolated, perfused guinea pig heart; test: Perfusion of doxorubicin and dexrazoxane in the isolated, perfused guinea pig heart (Langendorff); details: for % change in MAP duration / % change in QTc / Cardiac rate / Cor flow / LV dp/dt max / LV dpdt (relax) / LV peak systolic pressure / LVEDP / MAP Duration / QTcF: 30 min of perfusion
Description: Perfusion studies of doxorubicin and dexrazoxane in the isolated, perfused guinea pig heart were performed similarly as above. The following parameters were recorded continuously: electrocardiogram (ECG), monophasic action potentials (MAP), perfusion pressure, left ventricular pressure and coronary flow. These effects could be related to some modifications of cardiac electrophysiology (changes in PR, QRS, QT and RR intervals, proarrhythmic effects, Torsade de pointes . . . ), of coronary resistance and/or of cardiac contraction or inotropism (contractility or relaxation troubles).
Stock solutions (10^−2M, 3×10^−2M) in H20 for each drug were prepared each day of the experiment and a dilution (1/1000) done in the perfusion buffer in order to get the appropriate concentrations:
The buffer used in the experiment was KREBS-[…] buffer (Sigma K-3753) to which was added sodium bicarbonate (Sigma S5761) 25 mM and calcium chloride dihydrate (Sigma C8106) 1.8 mM.
The ECG (2 electrodes: on the apex and closed to the right auricular) and the MAP (electrode on the epicardium) were recorded. PR, QRS, QT and RR were measured and QTc (Fridericia; QTc=QT/(RR) ⅓ in ms) was calculated.
The coronary flow (mL/min) is indicated by the perfusion pump. In this model, the perfusion pressure was constant.
Diastolic pressure (mmHg), systolic pressure (mmHg), differential pressure (syst-diast) (mmHg), mean pressure (mmHg), dP/dt min (mmHg/sec) dP/dt max (mmHg/sec) and cardiac frequency (beat per minute: BPM) were measured. A modification of the inotropism can be a problem of cardiac contractility (if modified systolic pressure and dP/dt max) or relaxation (if modified diastolic pressure and dP/dt min). From the left ventricular pressure, the following were calculated: heart rate (frequency of cardiac contractions), dP/dt min and dP/dt max. An acquisition unit MP150WSW with Acknowledge software (Biopac, USA) was used to continuously record all the signals (perfusion pressure, coronary flow, left ventricular pressure, ECG and MAP) through a PC computer. In each group (n=4 hearts), increasing concentrations of compound were infused according to the following design:
For each group, the data are expressed as mean ±S.E.M, % of variation compared to D0 and delta variation from D0. PR, QRS, QT and RR are measured on the same period but on a signal which results from 5 cycles.
On all the curves, the mean value is measured on 30 seconds in the last minute of perfusion for the following parameters: […]

[3] = tested on: single ventricular myocytes; test: Unloaded cell shortening (UCS) of single ventricular myocytes; details: 10 μM
[4] = cited from earlier work
[5] = tested on: isolated guinea pig myocytes; test: Calcium transients in isolated guinea pig myocytes; type: cell-based; details: for calcium transients (effect in words): over the tested concentrations
Description: Calcium transients were measured during activation in isolated guinea pig myocytes. […] This increase in calcium transient without an action potential increase indicates an effect on calcium cycling proteins.

[6] = tested on: Langendorff heart preparations; test: Heart rate variability after total flow occlusion in stable Langendorff heart preparations; details: 10 μM, 30 min
[7] = tested on: single guinea-pig ventricular myocytes; test: Action potential recording in single guinea-pig ventricular myocytes; type: cell-based; details: for action potential duration (effect in words): superfused 10 to 30 minutes
Description: Myocytes were isolated after perfusion of the heart with a physiological salt solution containing reduced calcium and 0.8 mg/mL of collagenase Type 1 (Worthington Biochemicals).
Action potentials were recorded from single guinea-pig ventricular myocytes using the standard control conditions and criteria as adopted by CCTT Ltd. (see http://www.cctt.ltd.uk/ap1.htm). Briefly, action potentials were recorded using conventional glass microelectrodes filled with 1 M KMeSO4 and 10 mM KCl. Electrode resistances were in the range of 40 to 60 MΩ. An Axoclamp 2B (Axon Instruments Inc) amplifier was used for electrical recording. Action potentials were continuously stimulated by application of a brief (1-2 ms) current stimuli applied via the intracellular microelectrode in ‘bridge’ mode. Following penetration of the cell with the microelectrode, a stabilisation period of at least 5 min was allowed before recordings were started. The frequency of stimulation was 1 Hz. Recorded signals were digitised at a sampling frequency of 5 kHz and stored for subsequent off line analysis. Action potential signals were continuously monitored online using an oscilloscope (Tektronix digital storage oscilloscope) to check for development of effects of dexrazoxane. All recordings are made at 36±1° C.
The stability of several parameters of the action potential profile (resting potential, action potential amplitude and action potential duration) was ensured before recordings were commenced. Resting potential was measured over a 5-10 ms period before the stimulus artefact and values for the resting potential falling between −75 to −85 mV were taken as normal. Action potential amplitude was measured following the stimulus artefact and values falling between 110 to 130 mV were taken as normal.
All data are presented as mean ±SEM. The effect of dexrazoxane on action potential characteristics was assessed using Student's t-test (MicroSoft Excel) and P<0.05 was taken to indicate statistical significance.
Action potential duration was measured from the peak amplitude of the action potential to 90% repolarisation level (APD90), and values for APD90 falling between 150 to 300 ms were taken as normal. Parameters measured in this study were action potential duration at 40, and 90% repolarisation levels (APD40 and APD90) using Clampfit 9.0.
For each cell, APD40 and APD90 values were calculated in the absence (control) and presence of a drug. As an index of ‘Triangulation’ APD90-APD40, (APD90-40 ms) in the absence (APD90-40 control) and presence of dexrazoxane (APD90-40 drug) were calculated. This was normalised to the starting (control) APD90 to express APD90-40 duration as a % of control APD90. Calculations were made for each cell individually; the values for each drug concentration were then averaged.

[8] = tested on: isolated guinea pig myocytes; test: Action potential properties in isolated guinea pig myocytes; type: cell-based; details: for action potential duration (effect in words): over the tested concentrations
[9] = doxorubicin perfusion, 30 minute time point

SMILES: CC(CN1CC(=O)NC(=O)C1)N1CC(=O)NC(=O)C1 (racemic) [razoxane]
- solubility in 0.1 N HCl ([1]; 0.1 N HCl): sparingly soluble
- solubility in non-polar, organic solvents [1]: practically insoluble
- solubility in polar solvents [1]: slightly soluble

SMILES: C[C@@H](CN1CC(=O)NC(=O)C1)N1CC(=O)NC(=O)C1 [Dexrazoxane, (S)-4,4′-(1-methyl-1,2-ethanediyl)bis-2,6-piperazinedione]
- % change in MAP duration ([2]; DOX 3 * 10^−5 mM): 0.0%
- % change in QTc ([2]; DOX 3 * 10^−5 mM): −1.7 % change
- Cardiac rate ([2]; DOX 3 * 10^−5 mM): 200 Beats/min
- Cor flow ([2]; DOX 3 * 10^−5 mM): 14.6 mL/min
- LV dp/dt max ([2]; DOX 3 * 10^−5 mM): 1041 mmHg sec^−1
- LV dpdt (relax) ([2]; DOX 3 * 10^−5 mM): −1022 mmHg sec^−1
- LV peak systolic pressure ([2]; DOX 3 * 10^−5 mM): 82 mmHg
- LVEDP ([2]; DOX 3 * 10^−5 mM): 5 mmHg
- MAP Duration ([2]; DOX 3 * 10^−5 mM): 143 ms
- QTcF ([2]; DOX 3 * 10^−5 mM): 237 ms
- % change in MAP duration ([2]; DOX 10^−5 mM): 0%
- % change in QTc ([2]; DOX 10^−5 mM): −2.1 % change
- Cardiac rate ([2]; DOX 10^−5 mM): 203 Beats/min
- Cor flow ([2]; DOX 10^−5 mM): 14 mL/min
- LV dp/dt max ([2]; DOX 10^−5 mM): 1238 mmHg sec^−1
- LV dpdt (relax) ([2]; DOX 10^−5 mM): −1139 mmHg sec^−1
- LV peak systolic pressure ([2]; DOX 10^−5 mM): 94 mmHg
- LVEDP ([2]; DOX 10^−5 mM): 5 mmHg
- MAP Duration ([2]; DOX 10^−5 mM): 139 ms
- QTcF ([2]; DOX 10^−5 mM): 236 ms
- LVEDP (effect in words) ([2]; dexrazoxane added to the doxorubicin perfusion): did not contribute
- QTcF increase by doxorubicin (effect in words) ([2]; dexrazoxane added, both doxorubicin doses): reversed
- amplitude of UCS / contraction (effect in words) ([3]; 27 minutes): did not significantly alter
- peak amplitude of UCS, absolute cell shortening ([3]; 27 minutes, n=3, control 9.4±3.4 μm, P=ns): 10.7±3.2 μm
- UCS as percentage of resting cell length ([3]; n=3, control 8.5±2.7% RCL, P=ns): 8.0±2.0 % RCL
- stability of lyophilized drug without significant decomposition [4]: ~12 months
- solubility in 0.1 N HCl ([1]; 0.1 N HCl at 25° C., salt of hydrochloric acid): 35 mg/mL
- solubility in 0.1 N HCl ([1]; 0.1 N HCl): sparingly soluble
- solubility in water ([1]; 25° C.): about 10 mg/ml
- solubility in non-polar, organic solvents [1]: practically insoluble
- solubility in polar solvents [1]: slightly soluble
- Ca^2+ transients, Peak amplitude (ΔF/F0) ([5]; 10 μM): 5.2 ± 0.8 ΔF/F0
- Ca^2+ transients, Peak amplitude (ΔF/F0) ([5]; 30 μM): 5.8 ± 1.0 ΔF/F0
- Ca^2+ transients, Peak amplitude (ΔF/F0) ([5]; 100 μM): 5.1 ± 0.6 ΔF/F0
- calcium transients (effect in words) [5]: dose proportional increase
- coefficient of variation (heart rate variability) at reperfusion ([6]; control 2.9±0.2, n=3, P=ns): 3.3±1.1
- increase of coefficient of variation (heart rate variability) during reperfusion ([6]; reperfusion after 15 min total flow ischemia, n=3): 77%
- decrease in APD40 ([7]; 10 μM in superfusion solution, n=3, P<0.005): 18±4%
- APD90-40 duration (index of triangulation) ([7]; 10 μM superfusion): did not significantly alter
- action potential duration (APD90) ([7]; 10 μM, 27 minutes, control 212±9 ms): 168 ± 12 ms
- shortening of APD90 ([7]; 10 μM, perfusion 27 minutes, n=4, P<0.005): 18±3%
- action potential duration (effect in words) ([7]; 10 μM): shortened action potential duration
- action potential duration (effect in words) ([7]; 10 μM, listed as dexrazoxane): shortened action potential duration; also recorded: caused shortening of action potential duration
- APD40 ([7]; 10 μM, control 175±8 ms): 136 ± 15 ms
- APD50 ([8]; 10 μM): 512 ± 47 ms
- APD90 ([8]; 10 μM): 573 ± 43 ms
- Action potentials, Peak amplitude ([8]; 10 μM): 119 ± 2 mV
- Action potentials, Resting potential ([8]; 10 μM): −69 ± 0 mV
- APD50 ([8]; 30 μM): 493 ± 36 ms
- APD90 ([8]; 30 μM): 564 ± 33 ms
- Action potentials, Peak amplitude ([8]; 30 μM): 121 ± 2 mV
- Action potentials, Resting potential ([8]; 30 μM): −68 ± 2 mV
- APD50 ([8]; 100 μM): 548 ± 45 ms
- APD90 ([8]; 100 μM): 619 ± 39 ms
- Action potentials, Peak amplitude ([8]; 100 μM): 124 ± 1 mV
- Action potentials, Resting potential ([8]; 100 μM): −66 ± 1 mV
- action potential duration (effect in words) [8]: without inducing a change

SMILES: COc1cccc2c1C(=O)c1c(O)c3c(c(O)c1C2=O)C[C@@](O)(C(=O)CO)C[C@@H]3O[C@H]1C[C@H](N)[C@H](O)[C@H](C)O1 [Doxorubicin]
- % change in MAP duration ([2]; DOX 3 * 10^−5 mM): 13.3%
- % change in QTc ([2]; DOX 3 * 10^−5 mM): 11.9 % change
- Cardiac rate ([2]; DOX 3 * 10^−5 mM): 184 Beats/min
- Cor flow ([2]; DOX 3 * 10^−5 mM): 14.4 mL/min
- LV dp/dt max ([2]; DOX 3 * 10^−5 mM): 887 mmHg sec^−1
- LV dpdt (relax) ([2]; DOX 3 * 10^−5 mM): −922 mmHg sec^−1
- LV peak systolic pressure ([2]; DOX 3 * 10^−5 mM): 93 mmHg
- LVEDP ([2]; DOX 3 * 10^−5 mM): 14 mmHg
- MAP Duration ([2]; DOX 3 * 10^−5 mM): 162 ms
- QTcF ([2]; DOX 3 * 10^−5 mM): 272 ms
- % change in MAP duration ([2]; DOX 10^−5 mM): 2.2%
- % change in QTc ([2]; DOX 10^−5 mM): 1.6 % change
- Cardiac rate ([2]; DOX 10^−5 mM): 217 Beats/min
- Cor flow ([2]; DOX 10^−5 mM): 13.4 mL/min
- LV dp/dt max ([2]; DOX 10^−5 mM): 1277 mmHg sec^−1
- LV dpdt (relax) ([2]; DOX 10^−5 mM): −1173 mmHg sec^−1
- LV peak systolic pressure ([2]; DOX 10^−5 mM): 97 mmHg
- LVEDP ([2]; DOX 10^−5 mM): 7 mmHg
- MAP Duration ([2]; DOX 10^−5 mM): 142 ms
- QTcF ([2]; DOX 10^−5 mM): 247 ms
- LVEDP (effect in words) [2, 9]: marked increase
- QTcF (effect in words) [2, 9]: increased
- Ca^2+ transients, Peak amplitude (ΔF/F0) ([5]; 30 μM): 3.0 ± 0.7 ΔF/F0
- Ca^2+ transients, Peak amplitude (ΔF/F0) ([5]; 100 μM): 3.1 ± 0.5 ΔF/F0
- Ca^2+ transients, Peak amplitude (ΔF/F0) ([5]; 300 μM): 1.6 ± 0.3 ΔF/F0
- calcium transients (effect in words) [5]: dose related decrease
- APD50 ([8]; 30 μM): 553 ± 29 ms
- APD90 ([8]; 30 μM): 626 ± 28 ms
- Action potentials, Peak amplitude ([8]; 30 μM): 120 ± 3 mV
- Action potentials, Resting potential ([8]; 30 μM): −70 ± 3 mV
- APD50 ([8]; 100 μM): 646 ± 26 ms
- Action potentials, Peak amplitude ([8]; 100 μM): 119 ± 2 mV
- Action potentials, Resting potential ([8]; 100 μM): −68 ± 3 mV
- APD50 ([8]; 300 μM): 536 ± 48 ms
- APD90 ([8]; 300 μM): 611 ± 48 ms
- Action potentials, Peak amplitude ([8]; 300 μM): 122 ± 4 mV
- Action potentials, Resting potential ([8]; 300 μM): −69 ± 2 mV
- action potential duration (effect in words) [8]: profound prolongation

From US20080275036A1, “Prevention and treatment of cardiac conditions” (APT Pharmaceuticals, Inc., priority 2007, published 2008)
